# Test results as given in patent US20150273086A1, “HYPERPOLARIZED 2-OXOGLUTARATE AS METABOLIC AGENT IN MR” (BRACCO IMAGING S.P.A., priority 2012, published 2015).
# Legend:
# [1] = tested on: Morris7777 cells; test: UV assay of 2-oxoglutarate conversion in treated Morris7777 cells; type: cell-based, rat; conditions: Etoposide 15 μM 24 hours, Sorafenib 0.5 μM 48 hours, FIG. 10
# Experimental: (§1) The UV assay and conditions used in example 4 were applied. Prior to harvesting the cells have been treated with MS-275, resveratrol, etoposide, or Sorafenib, as follows:
# (§2) Morris7777 cells: Etoposide 15 μM, for 24 hours; Sorafenib 0.5 μM for 48 hours.
# (§3) Uptake and conversion of 2-oxoglutarate were measured as described in example 4.
# [2] = Trypan blue staining, total cell number and viability of treated Morris7777 cells; type: cell-based, rat; conditions: rat, Etoposide 15 μM 24 hours, Sorafenib 0.5 μM 48 hours
# Experimental: as §2
# (§4) The treatment protocols were evaluated with a standard cellular method, trypan blue staining which provide the total cell numbers and cell viability.
# [3] = tested on: Morris7777 cells; test: as above; type: cell-based, rat; conditions: Etoposide 15 μM 24 hours, Sorafenib 0.5 μM 48 hours
# Experimental: as §2, §4
# [4] = tested on: PC-3 cells; test: UV assay of 2-oxoglutarate conversion in treated PC-3 cells; type: cell-based, human; conditions: MS-275 0.5 μM 48 hours, Resveratrol 50 μM 48 hours, FIG. 9
# Experimental: as §1
# PC-3 cells: MS-275 0.5 μM, for 48 hours; Resveratrol 50 μM for 48 hours.
# as §3
# [5] = Trypan blue staining, total cell number and viability of treated PC-3 cells; type: cell-based, human; conditions: human, MS-275 0.5 μM 48 hours, Resveratrol 50 μM 48 hours
# Experimental: (§5) PC-3 cells: MS-275 0.5 μM, for 48 hours; Resveratrol 50 μM for 48 hours. The treatment protocols were evaluated with a standard cellular method, trypan blue staining which provide the total cell numbers and cell viability.
# [6] = tested on: PC-3 cells; test: as above; type: cell-based, human; conditions: MS-275 0.5 μM 48 hours, Resveratrol 50 μM 48 hours
# Experimental: as §5
# [7] = Hydrolysis of hyperpolarized 2-oxoglutaric-(1)-ethyl ester upon dissolution (13C-NMR); type: physicochemical; conditions: after 15 s; dissolved in D2O with added NaOH, pH 11
# Experimental: 2-oxoglutaric-(1)-ethyl ester (31 mg, 0.18 mmol) was added to an Eppendorf tube and mixed with 0.7 mg (0.45 μmol) of the carboxylic acid form of the finland radical (tris{8-carboxyl-2,2,6,6-tetramethyl-benzo(1,2-d:4,5-dS)bis(1,3)dithiole-4-yl}methyl, carboxylic acid form). […]. The ethyl ester formed a glass upon rapid freezing. […] […]. The sample was hyperpolarized for 90 min.
# The sample was dissolved in 6 ml D2O with added NaOH (35 μl of 10 M). […] The ester was hydrolyzed up to at least 95%, after 15 s. The 2-oxoglutaric-(1)-ethyl ester was easily hydrolyzed to 2-oxoglutarate during the time of the experiment.
# [8] = tested on: PC-3, HEP-G2, PNT-1A and THLE-3 cells; test: UV assay of uptake and conversion of 2-oxoglutarate to glutamate in cancerous and normal cells; type: cell-based, human; conditions: 20 mM 2-oxoglutarate, 20 mM aspartate as co-substrate, 30 minutes at 37° C., FIG. 2
# Experimental: A combination of cellular uptake of 2-oxoglutarate and conversion of 2-oxoglutarate to glutamate was measured using a UV assay. Following incubation of the cells with 2-oxoglutarate for 30 minutes at 37° C. the cells were disrupted and a perchloric acid extract was made to precipitate the enzymes, whereafter the concentration of the formed product, glutamate, was measured.
# The following UV assay for measuring glutamate production was applied.
# The assay consists of two parts, as shown in the reaction scheme below. In the first part, glutamate is generated by incubating 0.5 million (0.5*10^6) viable cells with 20 mM 2-oxoglutarate and 20 mM aspartate for 30 minutes at 37° C. In the second part the glutamate concentration is measured using commercially available GDH (glutamate dehydrogenase) enzyme to generate 2-oxoglutarate and NADH. The latter is an unfavorable reaction and the reaction is therefore forced in this direction by trapping of the produced NADH in the INT (Iodonitrotetrazolium) reaction.
# Reaction scheme for the assay determining glutamate concentration from cells incubated with 2-oxoglutarate. GDHcell refer to the cellular presence of glutamate dehydrogenase which will convert 2-oxoglutarate to glutamate when 2-oxoglutarate is incubated with whole cells in the first part of the assay. […]
# [9] = tested on: aspartate transaminase; test: Aspartate transaminase conversion of hyperpolarized 1-13C-2-oxoglutarate to 1-13C-glutamate with or without co-substrate
# Experimental: The sample was dissolved in 5 ml phosphate buffer (40 mM, pH 7.3) with addition of NaOH (8 μl, 12 M). The pH after dissolution was 7.3. From this hyperpolarized solution aliquots of 300 μl were taken and added one at a time to 5 mm NMR tubes (1-3) kept at 37° C. containing the following:
# Tube 1: 2.5 μl (3.2 U) aspartate transaminase+100 μl (120 mM) glutamate+200 μl 40 mM phosphate buffer pH.7.3.
# Tube 2: 2.5 μl (3.2 U) aspartate transaminase+100 μl (120 mM) aspartate+200 μl 40 mM phosphate buffer pH.7.3.
# Tube 3: 2.5 μl (3.2 U) aspartate transaminase+300 μl (40 mM) phosphate buffer pH.7.3.
# A low pulse angle experiment was performed (15 degree pulses every 0.5 s for 12 s). Following the end of the experiment the procedure was repeated for tube 2 and tube 3.
# [10] = tested on: prostate cancer cells (PC-3); conditions: 3.5 mM substrate, aspartate added, 14.1 T, 37° C., FIG. 3
# Experimental: 10 million prostate cancer cells (PC-3) were harvested and redissolved in 500 μl phosphate buffer (PBS).
# The acquisition was started just before injection of the hyperpolarized substrate.
# [11] = tested on: liver cancer cells (Morris7777); conditions: 3.5 mM total substrate, aspartate added, FIG. 13
# Experimental: 10 million liver cancer cells (Morris7777), were harvested and redissolved in 500 μl phosphate buffer (PBS).
# The acquisition was started just before injection of the hyperpolarized substrates.
# [12] = tested on: EL-4 xenograft mouse lymphoma model; test: In vivo DNP-MR glutamate signal pre versus post etoposide treatment; parameters: species or system C57BL/6 mouse; conditions: single dose Etoposide 2 mg/mouse i.p.; average over 4 mice, FIG. 8
# Experimental: EL-4 xenograft mouse lymphoma model has been selected as test system to verify the ability of detecting tumour response to a DNA targeting therapy. […].
# Five million EL-4 cells were suspended in 0.1 mL Roswell Park Memorial Institute (RPMI-1640) medium and subcutaneously injected in the flank of 7 weeks old female C57BL/6 mouse.
# DNP experiment has been performed 9-10 days after cells inoculation pre Etoposide treatment and 10-11 days after cells inoculation post single dose Etoposide treatment (a dose of 2 mg/mouse has been i.p. administered by injection of 300 μL of Eposin 20 mg/mL diluted 1:3 in saline solution). DNP sample has been prepared as describes in example 6.
compound,measurement,setting,value
"CNC(=O)c1cc(Oc2ccc(NC(=O)Nc3ccc(Cl)c(C(F)(F)F)c3)cc2)ccn1 [Sorafenib, sorafenib]",conversion of 2-oxoglutarate to glutamate in comparison to untreated cells (control),[1],no change
same,viability,[2],> 89%
same,Cell number,[3],8 million
Oc1ccc(C=Cc2cc(O)cc(O)c2)cc1 [Resveratrol],conversion of 2-oxoglutarate to glutamate in comparison to untreated cells (control),[4],higher
same,viability at 48 h,[5],> 94%
same,Cell number,[6],1.7 million
CCOC(=O)C(=O)CCC(=O)O [2-oxoglutaric-(1)-ethyl ester],ester hydrolyzed to 2-oxoglutarate,[7],at least 95%
O=C(O)CCC(=O)C(=O)O [2-oxoglutarate],conversion of 2-oxoglutarate in glutamate,[8],higher in carcinoma cells than in normal cells
same,formation of glutamate product by aspartate transaminase,[9]; no co-substrate (tube 3),no product can be formed
same,"conversion to glutamate by aspartate transaminase, aspartate versus glutamate as co-substrate","[9]; tubes 1 and 2, 37° C., FIG. 1",the two amino acids are almost equally effective
Nc1ccccc1NC(=O)c1ccc(CNC(=O)OCc2cccnc2)cc1 [MS-275],conversion of 2-oxoglutarate to glutamate in comparison to untreated cells (control),[4],no change
same,Cell number,[6],4.5 million
1-^13C-2-oxoglutaric acid [hyperpolarized 1-^13C-2-oxoglutarate],uptake and conversion into hyperpolarized 1-13C-glutamate,[10],taken up by PC-3 cells and converted into hyperpolarized 1-^13C-glutamate
same,produced hyperpolarized 1-13C-glutamate signal relative to 1-13C-lactate signal from hyperpolarized 1-13C-pyruvate,[11],more than 2 times
"COc1cc([C@@H]2c3cc4c(cc3[C@@H](O[C@@H]3O[C@@H]5CO[C@@H](C)O[C@H]5[C@H](O)[C@H]3O)[C@H]3COC(=O)[C@H]23)OCO4)cc(OC)c1O [Etoposide, etoposide]",signal of hyperpolarized 1-13C-glutamate post therapy compared to pre therapy,[12],increases two times
same,conversion of 2-oxoglutarate to glutamate in comparison to untreated cells (control),[1],higher
same,viability,[2],< 85%
same,Cell number,[3],5.5 million
